Reference: paper PMC9233675, “Ru(II) photocages enable precise control over enzyme activity with red light” (Nature Communications, 2022)
Where “and” joins values, the source holds several entries; their conditions need not be identical. Equal values may be shown once. Read-outs that look alike come from different tables or passages of the source.

Key:
[1] = Stability of compounds in human liver microsomes; settings: for Remaining, % (T=60min): human, liver microsomes
[2] = set-up: method as in Scifinder; settings: ref Scifinder; cited from earlier work
[3] = Stability of complexes at 37 °C in the dark (HPLC, UV/Vis); format: physicochemical
Description: The stability of each complex was assessed over 24 h under aqueous conditions at 37 °C (Supplementary Figs. 12–15). […] Given the potency of the caged inhibitor, thermal stability is of critical importance, making complex 6 the preferred photocaged candidate.
Opti-MEM with 2% fetal bovine serum (right) at 37 °C in the dark over the course of 0 (blue line) to 24 h (black dashed line). Compounds were tested in triplicate (n = 3), the data for one replicate are presented. Complexes 4 and 5 slowly degraded in the experiment condition (see HPLC traces, Figures S13–14). The decrease in absorbance for complex 6 is explained by the slow aggregation of the compound in the 96-well plate.
(1 picture or pasted object on this page, not shown here)
Supplementary Figure 13. a HPLC chromatogram analysis of stability of 4 (50 µM in di-H2O) before (black dashed line, purity > 92 % ) and after incubation at 37 °C for 24 hours (red line). At 24 hours, 43 % of 4 was […]
Supplementary Figure 14. HPLC chromatogram analysis of stability of 5 (50 µM in di-H2O) before (black dashed line, purity > 97 %) and after incubation at 37 °C for 24 hours (red line). At 24 hours, 50 % of 5 was observed […]
Supplementary Figure 15. HPLC chromatogram analysis of stability of 6 (40 µM in di-H O : MeCN mixture (4:1), […]
MeCN was added to reduce the aggregation) before (black dashed line, purity > 99.5 %) and after incubation at 37 °C for 24 hours. At 24 hours, less than 2 % degradation was observed (calculated by area, detection wavelength = […]
Supplementary Figure 16. HPLC chromatogram analysis of stability of 6 (40 µM) in 5 % DMSO / di-H2O with a 100 μM GSH, b 100 μM imidazole and c acidic condition (pH = 1) after incubation at 37 °C for 72 hours. Less than […]
detection wavelength = 280 nm). […]
imidazole and c acidic condition (pH = 1) after incubation at 37 °C for 72 hours. d At 72 hours less than 7 % degradation was observed by HPLC at pH = 1 (calculated by area, detection wavelength = 280 nm). Compounds were tested in triplicate (n = 3), the data for one replicate are presented.

[4] = Irradiation-induced 1O2 production (Singlet Oxygen Sensor Green assay); format: physicochemical; settings: sheet S27; triplicate columns; DMSO control about 0.9
From the text: Some Ru(II) complexes can generate singlet oxygen when photoexcited, a feature that has been applied to the selective photoinactivation of proteins. In this approach, the Ru(II) system is conjugated to a peptide that is a specific ligand for the protein target; binding of the peptide to the protein ensures close proximity of the Ru(II) center and thus, upon photoexcitation, the generation of a high local concentration of singlet oxygen. […] As very little of this reactive oxygen species was generated, inactivation of the CYP enzymes by this process appears unlikely.
Supplementary Figure 27. Determination of irradiation-induced 1O2 production with 660 nm light (1 hr = 58.7 J/cm2)
using the Singlet Oxygen Sensor Green assay. […]

HEK293 T-Rex cell line = assay: Cellular viability (resazurin to resorufin, 72 h); format: cell-based, human; settings: Supplementary Fig. 24d
Description: The cells were >70% viable at 72 h with 10 μM compound, as quantified by metabolically active cells determined by the conversion of resazurin to resorufin (Supplementary Figs. 18–20).
The parental HEK T-Rex cell line was maintained as above, in the absence of Zeocin. Compounds were serially diluted in media, and the cells were dosed from 0–30 μM compound, and then incubated at 37 °C (n = 3). […] The cells were incubated with the compound in the dark for 30 min prior to light exposure, using the same parameters as in the enzyme activity assay, and then treated as above.

CYP19A1 [5] = biological target: T1, CYP19A1 (Homo sapiens, UniProt P11511); assay: In cell activity assay for CYP19A1 (dibenzylfluorescein conversion, HEK293 T-Rex cells); format: cell-based; settings: concentrations up to 30 μM, in the dark and following irradiation to form 7
T1 sequence (P11511 1-503): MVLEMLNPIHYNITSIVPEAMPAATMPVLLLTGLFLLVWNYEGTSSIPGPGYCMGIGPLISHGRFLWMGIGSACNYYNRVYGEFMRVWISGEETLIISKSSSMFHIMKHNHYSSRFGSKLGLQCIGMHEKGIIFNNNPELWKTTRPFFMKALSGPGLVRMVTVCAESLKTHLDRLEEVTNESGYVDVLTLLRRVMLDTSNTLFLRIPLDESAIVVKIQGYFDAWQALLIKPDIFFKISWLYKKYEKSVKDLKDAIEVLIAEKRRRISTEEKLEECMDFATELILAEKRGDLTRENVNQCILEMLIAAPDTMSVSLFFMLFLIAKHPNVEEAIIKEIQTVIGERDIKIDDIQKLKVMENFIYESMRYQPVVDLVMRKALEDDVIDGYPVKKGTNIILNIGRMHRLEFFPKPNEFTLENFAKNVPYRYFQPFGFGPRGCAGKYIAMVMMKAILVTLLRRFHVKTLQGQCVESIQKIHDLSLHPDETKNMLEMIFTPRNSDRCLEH
Description: Thus, the activity against CYP19A1 was evaluated using a recently developed in-cell fluorometric assay.
REE or DBF was added as described above.

human isoform of CYP51 = biological target: human isoform of CYP51; set-up: method as in PMID 23826084; settings: cited from earlier work
fungal CYP51 = settings: read-out: Kd fungal CYP51; cited from earlier work
CYP3A4 = test system: CYP3A4; set-up: method as in PMID 23018626; settings: cited from earlier work
[6] = Stability of compounds in mouse liver microsomes
[7] = Stability of compounds in rat liver microsomes
[8] = human, microsomes
[9] = mouse, microsomes
[10] = rat, microsomes
CYP19A1 [11] = test system: CYP19A1; set-up: method as in PMID 9152599; settings: cited from earlier work

O=C(O)Cc1ccccc1Nc1c(Cl)cccc1Cl [Diclofenac, reference compound]
Remaining, % (T=60min) [1]: 0.0%

Cc1ccncc1 [methyl pyridine]
pKa [2]: 5.9

O=C([O-])c1cc2[n+](c3ccccc13)[Ru-4]13([n+]4ccccc4)([n+]4ccccc4-c4cccc([n+]41)-c1cccc[n+]13)[n+]1c-2cc(C(=O)[O-])c2ccccc21 [Compound 8, [Ru(tpy)(bca)(pyridine)]]
degradation at pH = 1 ([3]; 5 % DMSO / di-H2O, acidic condition (pH = 1), 37 °C, 72 hours): less than 7%
degradation over 72 h ([3]; Supplementary Fig. 17): < 7%
irradiation-induced 1O2 production (Singlet Oxygen Sensor Green signal, relative) [4]: 1.034 and 0.94 and 1.135
effect on cell health (HEK293 T-Rex cell line): no effect
impact on any CYP (CYP19A1) (CYP19A1 [5]): no impact

CC(=O)N1CCN(c2ccc(OCC3COC(Cn4ccnc4)(c4ccc(Cl)cc4Cl)O3)cc2)CC1 (centres unmarked) [Ketoconazole, ketoconazole]
Kd (human isoform of CYP51): 42 nM
Kd (fungal CYP51): 27 nM

Cc1ccncn1 [methyl pyrimidine]
pKa [2]: 2.0

CCCCCCOC(C)c1c(C)c2cc3nc(c4c5[nH]c(cc6nc(cc1[nH]2)C(C)=C6CC)c(C)c5C(=O)C4)[C@@H](CCC(=O)O)[C@@H]3C (some centres unmarked) [HPPH, reference compound]
irradiation-induced 1O2 production (Singlet Oxygen Sensor Green signal, relative) [4]: 4.8266 and 4.787 and 4.883

C[C@]12CC[C@H]3[C@@H](CCC4=CC(=O)CC[C@@]43C)[C@@H]1CC[C@@H]2O [Testosterone, reference compound]
Remaining, % (NCF=60min) ([6]; mouse liver microsomes, no co-factor (no NADPH)): 91.3%
Remaining, % (T=60min) ([6]; mouse, liver microsomes): 2.3%
Remaining, % (NCF=60min) ([7]; rat liver microsomes, no co-factor (no NADPH)): 86.5%
Remaining, % (T=60min) ([7]; rat, liver microsomes): 0.8%
Remaining, % (NCF=60min) ([1]; human liver microsomes, no co-factor (no NADPH)): 82.5%
Remaining, % (T=60min) [1]: 3.6%

COc1ccc(/C=C/c2cc[n+]([Os-4]34([Cl])([n+]5ccccc5-c5cccc[n+]53)[n+]3ccccc3-c3cccc[n+]34)cn2)c(OC)c1.[Cl-] [[Os(bpy)2(2)Cl]Cl]
CLint(mic) [8]: < 9.6 µL/min/mg
T1/2 [8]: > 2.42 h
Remaining, % (NCF=60min) ([8]; 1 h): 107%
Remaining, % (T=60min) ([8]; 1 h): 78.4%
CLint(mic) [9]: < 9.6 µL/min/mg
T1/2 [9]: > 2.42 h
Remaining, % (NCF=60min) ([9]; 1 h): 75.9%
Remaining, % (T=60min) ([9]; 1 h): 71.8%
CLint(mic) [10]: 16.9 µL/min/mg
T1/2 [10]: 1.36 h
Remaining, % (NCF=60min) ([10]; 1 h): 91.8%
Remaining, % (T=60min) ([10]; 1 h): 56.5%

CC(C)(C#N)c1cc(Cn2cncn2)cc(C(C)(C)C#N)c1 [Anastrozole, anastrozole]
selectivity for CYP19A1 over liver CYPs (CYP19A1 [11]): at least 500 fold

[Ru+2].c1ccc(-c2ccccn2)nc1.c1ccc(-c2ccccn2)nc1.c1ccc(-c2ccccn2)nc1 [Ru(bpy)3, reference compound]
irradiation-induced 1O2 production (Singlet Oxygen Sensor Green signal, relative) [4]: 4.994 and 4.917 and 5.133
